Experimental data reported in ChEMBL document CHEMBL1201862, “PubChem BioAssay data set” (2004).
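96-well plates; 48 h exposure; 5 concentrations. Endpoints by linear interpolation between flanking doses. Not reached: highest tested concentration assigned. GI50: concentration for 50% inhibition of growth.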 Active and inactive are the calls of the source. Cut-off read from the data, not from the text of the source: active = GI50 up to about 1.1 µM and inactive = higher.

Assays:
Assay in all cases: growth of human tumour cells (NCI), 48 h
[1] = tested on: K562
[2] = tested on: MDA-MB-231
[3] = tested on: ACHN
[4] = tested on: SK-MEL-5
[5] = tested on: OVCAR-4
[6] = tested on: NCI/ADR-RES
[7] = tested on: IGROV-1
[8] = tested on: UACC-62
[9] = tested on: HOP-92
[10] = tested on: HOP-62
[11] = tested on: SK-MEL-28
[12] = tested on: U-251
[13] = tested on: HL-60
[14] = tested on: T47D
[15] = tested on: Hs-578T
[16] = tested on: SF-539
[17] = tested on: NCI-H23
[18] = tested on: UO-31
[19] = tested on: SR
[20] = tested on: NCI-H460

SMILES | GI50 [1] | GI50 [2] | GI50 [3] | GI50 [4] | GI50 [5] | GI50 [6] | GI50 [7] | GI50 [8] | GI50 [9] | GI50 [10] | GI50 [11] | GI50 [12] | GI50 [13] | GI50 [14] | GI50 [15] | GI50 [16] | GI50 [17] | GI50 [18] | GI50 [19] | GI50 [20]
CC(=O)OC(C)c1cc2c(s1)C(=O)c1ccsc1C2=O (stereo not drawn) | 0.131 µM (active) | 0.209 µM (active) | 0.158 µM (active) | 0.0273 µM (active) | 0.664 µM (active) | 0.271 µM (active) | 0.659 µM (active) | 0.0811 µM (active) | 0.372 µM (active) | 0.137 µM (active) | 0.172 µM (active) | 0.165 µM (active) | 0.0122 µM (active) | 0.437 µM (active) | 0.154 µM (active) | 0.0528 µM (active) | 0.0575 µM (active) | 0.184 µM (active) | 0.0748 µM (active) | –
S=c1ssc2c3ssc(=S)c3n(Cc3ccccc3)c12 | 40.9 µM (inactive) | > 100 µM (inactive) | > 100 µM (inactive) | > 100 µM (inactive) | > 100 µM (inactive) | > 100 µM (inactive) | > 100 µM (inactive) | 40.3 µM (inactive) | > 100 µM (inactive) | > 100 µM (inactive) | > 100 µM (inactive) | 60.5 µM (inactive) | > 100 µM (inactive) | 22.3 µM (inactive) | > 100 µM (inactive) | 21.3 µM (inactive) | > 100 µM (inactive) | 20.3 µM (inactive) | 0.67 µM (active) | > 100 µM (inactive)
O=[N+]([O-])C(/C(Cl)=C(\Cl)Br)=C(/Cl)SCc1ccccc1 | 1.27 µM (inactive) | 2.94 µM (inactive) | 2.97 µM (inactive) | 2.9 µM (inactive) | 3.87 µM (inactive) | 2.77 µM (inactive) | 5.9 µM (inactive) | 3.2 µM (inactive) | 2.31 µM (inactive) | 15.1 µM (inactive) | 2.31 µM (inactive) | 6.46 µM (inactive) | 0.336 µM (active) | 3.68 µM (inactive) | 5.11 µM (inactive) | 8.83 µM (inactive) | 5.71 µM (inactive) | 2.52 µM (inactive) | 1.44 µM (inactive) | 12.8 µM (inactive)
O=C(CCCC1Cc2ccccc2C1=O)c1ccccc1 (stereo not drawn) | 39.8 µM (inactive) | > 100 µM (inactive) | 98.4 µM (inactive) | 35.6 µM (inactive) | 59.3 µM (inactive) | 26.9 µM (inactive) | > 100 µM (inactive) | 69.5 µM (inactive) | 62.8 µM (inactive) | > 100 µM (inactive) | > 100 µM (inactive) | 38.6 µM (inactive) | 32.4 µM (inactive) | 33.3 µM (inactive) | > 100 µM (inactive) | > 100 µM (inactive) | 60.1 µM (inactive) | 47.1 µM (inactive) | 41.2 µM (inactive) | 89.9 µM (inactive)
CCOC(=O)c1cc([N+](=O)[O-])cc([N+](=O)[O-])c1Sc1[nH]cnc2ncnc1-2 | 0.661 µM (active) | 7.01 µM (inactive) | 1.96 µM (inactive) | 5.94 µM (inactive) | 1.03 µM (active) | 3.11 µM (inactive) | 2.31 µM (inactive) | 4.5 µM (inactive) | 0.771 µM (active) | 3.54 µM (inactive) | 3.13 µM (inactive) | 8.71 µM (inactive) | 1.94 µM (inactive) | 1.2 µM (inactive) | 6.92 µM (inactive) | 2.92 µM (inactive) | – | 1.75 µM (inactive) | 2.38 µM (inactive) | 8.81 µM (inactive)
Cc1nc2c(ccc3[nH]c4ccccc4c32)s1 | 22.3 µM (inactive) | 14.5 µM (inactive) | 35.1 µM (inactive) | 15.2 µM (inactive) | 25.5 µM (inactive) | 34.8 µM (inactive) | 21.9 µM (inactive) | 18.4 µM (inactive) | 16.3 µM (inactive) | 17.4 µM (inactive) | 21.1 µM (inactive) | 20.5 µM (inactive) | 0.111 µM (active) | 20.2 µM (inactive) | 16.3 µM (inactive) | 26 µM (inactive) | 30.2 µM (inactive) | 26.2 µM (inactive) | 13.8 µM (inactive) | 20.6 µM (inactive)
Cc1cc(NS(=O)(=O)c2ccc(NC(=O)c3ccc4nc5ccccc5c(Nc5ccc(S(N)(=O)=O)cc5)c4c3)cc2)no1 | 19.8 µM (inactive) | 24 µM (inactive) | 21.3 µM (inactive) | 25.1 µM (inactive) | 27.4 µM (inactive) | 31.8 µM (inactive) | 33.4 µM (inactive) | 29.7 µM (inactive) | 24.6 µM (inactive) | 33.6 µM (inactive) | 21 µM (inactive) | 25.5 µM (inactive) | 22.7 µM (inactive) | 24.2 µM (inactive) | 31.9 µM (inactive) | 27.9 µM (inactive) | 33 µM (inactive) | 20.1 µM (inactive) | 25.1 µM (inactive) | 20.7 µM (inactive)
